In US20260022143A1, “Cyclic Peptide Inhibitors of IL-23” (JANSSEN PHARMACEUTICA NV, priority 2022, published 2026):
Where a name gives a salt, the structure may show the parent alone. Starred links: 1 amine or outer side, 2 acyl side, 3 side chain; linkers in the order of their positions; H or OH if unused. Positions of bridges follow the written chain, without caps; N, C: chain ends. Non-standard residues stand in square brackets, D forms with d. Residues, ends and D or L forms follow the SMILES beside them. *: point of attachment. Me3N+(CH2)2O(CH2)2O(CH2)2CO = C[N+](C)(C)CCOCCOCCC(=O)*; CH2CH2OCH2CH2OCH2CH2NMe3+ = C[N+](C)(C)CCOCCOCC*; Trp(7-Me) = Cc1cccc2c(C[C@H](N)C(=O)O)c[nH]c12; Hexanoyl(6-NMe3+) = C[N+](C)(C)CCCCCC(=O)*; X15 = CC(=O)N(C)C[C@H](N[*:1])C(=O)[*:2]; 2Nal = N[C@@H](Cc1ccc2ccccc2c1)C(=O)O; AEF = NCCOc1ccc(C[C@H](N)C(=O)O)cc1; X65 = COCCOCCC[N+](C)(CCCOCCOC)CC*; X22 = CN1CC[N+](C)(CCOCCOCC*)CC1; 3Pal = N[C@@H](Cc1cccnc1)C(=O)O; Lys(Me) = CNCCCC[C@H](N)C(=O)O; Pen = CC(C)(S)[C@H](N)C(=O)O; X52 = C[N+](C)(C)CCOCCNCC*; Thp = NC1(C(=O)O)CCOCC1; X3 = C[N+](C)(C)CCCCC*; Tfa = O=C(C(F)(F)F)*; Sar = CNCC(=O)O

Assays:
[1] = target: T1, IL-23R (Homo sapiens, UniProt Q5VWK5); experiment: IL23R Reporter Assay; type: cell-based; settings: HEK293 cells containing IL-23R, IL-12RP1 and STAT-inducible firefly luciferase reporter; 10 ng/mL IL-23 (EC90); 5 h at 37° C.; read-out: IL23R Reporter Assay
T1 construct: host or cells: HEK293
T1 sequence (Q5VWK5 24-629): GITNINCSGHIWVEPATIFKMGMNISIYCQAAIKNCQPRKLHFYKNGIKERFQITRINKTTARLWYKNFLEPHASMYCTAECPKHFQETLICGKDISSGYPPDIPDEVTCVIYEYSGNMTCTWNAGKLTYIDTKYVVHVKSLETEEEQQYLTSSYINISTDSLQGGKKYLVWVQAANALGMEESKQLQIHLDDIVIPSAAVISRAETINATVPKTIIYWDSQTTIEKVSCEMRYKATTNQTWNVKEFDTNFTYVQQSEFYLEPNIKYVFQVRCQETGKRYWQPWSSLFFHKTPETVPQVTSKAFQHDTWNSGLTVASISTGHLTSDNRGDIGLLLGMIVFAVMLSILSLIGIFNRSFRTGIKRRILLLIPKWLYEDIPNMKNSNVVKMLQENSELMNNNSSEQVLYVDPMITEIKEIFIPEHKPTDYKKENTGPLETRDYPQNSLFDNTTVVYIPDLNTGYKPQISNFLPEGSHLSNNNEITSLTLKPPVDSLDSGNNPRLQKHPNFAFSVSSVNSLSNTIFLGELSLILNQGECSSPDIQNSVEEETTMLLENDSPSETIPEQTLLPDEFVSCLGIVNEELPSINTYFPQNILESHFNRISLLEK

[2] = Exposed Polar Surface Area (EPSA); type: physicochemical; settings: SFC on Chirex 3014 column; sample 1 mM DMSO stock; read-out: EPSA
In short: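 SFC retention on a Chirex 3014 (S-valine/(R)-1-(α-naphthyl)ethylamine) column at 35 °C, 4 mL/min, 14 MPa outlet, 5–60% methanol/20 mM ammonium formate gradient in CO2. Retention times converted to EPSA (Å²) via linear calibration with 8 standards; samples from 1 mM DMSO stock, run in duplicate.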

IC50 [1]	EPSA [2]	Compound
3 nM	139 A^2	CC(=O)N(C)CCCC[C@@H]1NC(=O)[C@H](Cc2c[nH]c3c(C)cccc23)NC(=O)[C@H]([C@@H](C)O)NC(=O)[C@H](CC(=O)N(C)C)NC(=O)[C@@H](NC(=O)CCOCCOCC[N+](C)(C)C)C(C)(C)SSC(C)(C)[C@@H](C(=O)N[C@@H](Cc2ccc(OCCOCCOCC[N+]3(C)CCN(C)CC3)cc2)C(=O)N[C@@H](Cc2ccc3ccccc3c2)C(=O)NC2(C(=O)N[C@@H](CCCCN(C)C(C)=O)C(=O)N[C@@H](CC(N)=O)C(=O)N[C@@H](Cc3cccnc3)C(=O)N(C)CC(=O)N(C)C)CCOCC2)NC1=O [compound 224, cPEG3aCO-Pen(3)-N(N(Me)2)-T-7MeW-K(NMeAc)-Pen(3)-MPzPEG3F-2Nal-THP-K(NMeAc)-N-3Pya-Sar-CON(Me)2] ({Me3N+(CH2)2O(CH2)2O(CH2)2CO}-[Pen]D(NMe2)T[Trp(7-Me)][Lys(Me)](Ac)[Pen]Y(X22)[2Nal][Thp][Lys(Me)](Ac)N[3Pal][Sar]-NMe2; disulfide 1-6)
47 nM	198 A^2	CCCCCCCCCCCC(=O)N[C@@H](CCC(=O)NCCOCCOCC(=O)NCCOCCOCC(=O)NCCOCCOCC(=O)NCCOCCOCC(=O)NCCCC[C@H](NC(=O)COCCOCCNC(=O)COCCOCCNC(=O)COCCOCCNC(=O)COCCOCCNC(=O)CC[C@H](NC(=O)CCCCCCCCCCC)C(=O)O)C(=O)NCCOCCOCC(=O)NCCOCCOCC(=O)NCCCC[C@@H](C(N)=O)N(C)C(=O)[C@H](Cc1cccnc1)NC(=O)[C@H](CC(N)=O)NC(=O)[C@H](CCCCN(C)C(C)=O)NC(=O)C1(NC(=O)[C@H](Cc2ccc3ccccc3c2)NC(=O)[C@H](Cc2ccc(OCCCCC[N+](C)(C)C)cc2)NC(=O)[C@H]2NC(=O)[C@H](CCCCNC(C)=O)NC(=O)[C@H](Cc3c[nH]c4c(C)cccc34)NC(=O)[C@H]([C@@H](C)O)NC(=O)[C@H](CC(=O)N(C)C)NC(=O)[C@@H](NC(=O)CCOCCOCC[N+](C)(C)C)C(C)(C)SSC2(C)C)CCOCC1)C(=O)O [compound 409, cPEG3aCO-Pen(3)-N(N(Me)2)-T-7MeW-K(Ac)-Pen(3)-TMAPF-2Nal-THP-K(NMeac)-N-3Pya-NMeK(PEG2PEG2K(PEG2PEG2PEG2PEG2gEC12)2)-CONH2]
3 nM	156 A^2	CC(=O)N(C)CCCC[C@@H]1NC(=O)[C@H](Cc2c[nH]c3c(C)cccc23)NC(=O)[C@H]([C@@H](C)O)NC(=O)[C@H](CC(=O)N(C)C)NC(=O)[C@@H](NC(=O)CCOCCOCC[N+](C)(C)C)C(C)(C)SSC(C)(C)[C@@H](C(=O)N[C@@H](Cc2ccc(OCCOCCOCC[N+](C)(C)C)cc2)C(=O)N[C@@H](Cc2ccc3ccccc3c2)C(=O)NC2(C(=O)N[C@@H](CN(C)C(C)=O)C(=O)N[C@@H](CC(N)=O)C(=O)N[C@@H](Cc3cccnc3)C(=O)N(C)CC(=O)N(C)C)CCOCC2)NC1=O [compound 419, cPEG3aCO-Pen(3)-N(N(Me)2)-T-7MeW-K(NMeAc)-Pen(3)-APEG3F-2Nal-THP-Dap(NMeAc)-N-3Pya-Sar-CON(Me)2] ({Me3N+(CH2)2O(CH2)2O(CH2)2CO}-[Pen]D(NMe2)T[Trp(7-Me)][Lys(Me)](Ac)[Pen]Y(CH2CH2OCH2CH2OCH2CH2NMe3+)[2Nal][Thp][X15]N[3Pal][Sar]-NMe2; disulfide 1-6)
1.8 nM	134 A^2	COCCOCCC[N+](C)(CCCOCCOC)CCOc1ccc(C[C@H](NC(=O)[C@H]2NC(=O)[C@H](CCCCN(C)C(C)=O)NC(=O)[C@H](Cc3c[nH]c4c(C)cccc34)NC(=O)[C@H]([C@@H](C)O)NC(=O)[C@H](CC(=O)N(C)C)NC(=O)[C@@H](NC(=O)CCOCCOCC[N+](C)(C)C)C(C)(C)SSC2(C)C)C(=O)N[C@@H](Cc2ccc3ccccc3c2)C(=O)NC2(C(=O)N[C@@H](CCCCN(C)C(C)=O)C(=O)N[C@@H](CC(N)=O)C(=O)N[C@@H](Cc3cccnc3)C(=O)N(C)CC(=O)N(C)C)CCOCC2)cc1 [compound 221, cPEG3aCO-Pen(3)-N(N(Me)2)-T-7MeW-K(NMeAc)-Pen(3)-AEF(BisMEPa)-2Nal-THP-K(NMeAc)-N-3Pya-Sar-CON(Me)2Â] ({Me3N+(CH2)2O(CH2)2O(CH2)2CO}-[Pen]D(NMe2)T[Trp(7-Me)][Lys(Me)](Ac)[Pen]Y(X65)[2Nal][Thp][Lys(Me)](Ac)N[3Pal][Sar]-NMe2; disulfide 1-6)
3.7 nM	164 A^2	CC(=O)NCCCC[C@@H]1NC(=O)[C@H](Cc2c[nH]c3c(C)cccc23)NC(=O)[C@H]([C@@H](C)O)NC(=O)[C@H](CC(N)=O)NC(=O)[C@@H](NC(=O)CCOCCOCC[N+](C)(C)C)C(C)(C)SSC(C)(C)[C@@H](C(=O)N[C@@H](Cc2ccc(OCCN)cc2)C(=O)N[C@@H](Cc2ccc3ccccc3c2)C(=O)NC2(C(=O)N[C@@H](CCCCNC(C)=O)C(=O)N[C@@H](CC(N)=O)C(=O)N[C@@H](Cc3cccnc3)C(=O)N(C)CC(N)=O)CCOCC2)NC1=O [compound 90, cPEG3aCO-Pen(3)-N-T-7MeW-K(Ac)-Pen(3)-AEF-2Nal-THP-K(Ac)-N-3Pya-Sar-CONH2] ({Me3N+(CH2)2O(CH2)2O(CH2)2CO}-[Pen]NT[Trp(7-Me)]K(Ac)[Pen][AEF][2Nal][Thp]K(Ac)N[3Pal][Sar]-NH2; disulfide 1-6)
3.5 nM	145 A^2	CC(=O)N(C)CCCC[C@@H]1NC(=O)[C@H](Cc2c[nH]c3c(C)cccc23)NC(=O)[C@H]([C@@H](C)O)NC(=O)[C@H](CC(=O)N(C)C)NC(=O)[C@@H](NC(=O)CCOCCOCC[N+](C)(C)C)C(C)(C)SSC(C)(C)[C@@H](C(=O)N[C@@H](Cc2ccc(OCCNCCOCC[N+](C)(C)C)cc2)C(=O)N[C@@H](Cc2ccc3ccccc3c2)C(=O)NC2(C(=O)N[C@@H](CCCCN(C)C(C)=O)C(=O)N[C@@H](CC(N)=O)C(=O)N[C@@H](Cc3cccnc3)C(=O)N(C)CC(=O)N(C)C)CCOCC2)NC1=O [compound 238, cPEG3aCO-Pen(3)-N(N(Me)2)-T-7MeW-K(NMeAc)-Pen(3)-AEF(PEG2a)-2Nal-THP-K(NMeAc)-N-3Pya-Sar-CON(Me)2] ({Me3N+(CH2)2O(CH2)2O(CH2)2CO}-[Pen]D(NMe2)T[Trp(7-Me)][Lys(Me)](Ac)[Pen]Y(X52)[2Nal][Thp][Lys(Me)](Ac)N[3Pal][Sar]-NMe2; disulfide 1-6)
25 nM	157 A^2	CC(=O)NCCCC[C@@H]1NC(=O)[C@H](Cc2c[nH]c3c(C)cccc23)NC(=O)[C@H]([C@@H](C)O)NC(=O)[C@H](CC(N)=O)NC(=O)[C@@H](NC(=O)C(F)(F)F)C(C)(C)SSC(C)(C)[C@@H](C(=O)N[C@@H](Cc2ccc(OCCN)cc2)C(=O)N[C@@H](Cc2ccc3ccccc3c2)C(=O)NC2(C(=O)N[C@@H](CCCCNC(C)=O)C(=O)N[C@@H](CC(N)=O)C(=O)N[C@@H](Cc3cccnc3)C(=O)N(C)C)CCOCC2)NC1=O [compound 63] (Tfa-[Pen]NT[Trp(7-Me)]K(Ac)[Pen][AEF][2Nal][Thp]K(Ac)N[3Pal]-NMe2; disulfide 1-6 (inferred))
2 nM	156 A^2	CC(=O)N(C)CCCC[C@@H]1NC(=O)[C@H](Cc2c[nH]c3c(C)cccc23)NC(=O)[C@H]([C@@H](C)O)NC(=O)[C@H](CC(=O)N(C)C)NC(=O)[C@@H](NC(=O)CCCCC[N+](C)(C)C)C(C)(C)SSC(C)(C)[C@@H](C(=O)N[C@@H](Cc2ccc(OCCCCC[N+](C)(C)C)cc2)C(=O)N[C@@H](Cc2ccc3ccccc3c2)C(=O)NC2(C(=O)N[C@@H](CCCCN(C)C(C)=O)C(=O)N[C@@H](CC(N)=O)C(=O)N[C@@H](Cc3cccnc3)C(=O)N(C)CC(=O)N(C)C)CCOCC2)NC1=O [compound 343, 5cpaCO-Pen(3)-N(N(Me)2)-T-7MeW-K(NMeAc)-Pen(3)-TMAPF-2Nal-THP-K(NMeAc)-N-3Pya-Sar-CON(Me)2] ({Hexanoyl(6-NMe3+)}-[Pen]D(NMe2)T[Trp(7-Me)][Lys(Me)](Ac)[Pen]Y(X3)[2Nal][Thp][Lys(Me)](Ac)N[3Pal][Sar]-NMe2; disulfide 1-6)
3.5 nM	163 A^2	CC(=O)NCCCC[C@@H]1NC(=O)[C@H](Cc2c[nH]c3c(C)cccc23)NC(=O)[C@H]([C@@H](C)O)NC(=O)[C@H](CC(N)=O)NC(=O)[C@@H](NC(C)=O)C(C)(C)SSC(C)(C)[C@@H](C(=O)N[C@@H](Cc2ccc(OCCCCC[N+](C)(C)C)cc2)C(=O)N[C@@H](Cc2ccc3ccccc3c2)C(=O)NC2(C(=O)N[C@@H](CCCCNC(C)=O)C(=O)N[C@@H](CC(N)=O)C(=O)N[C@@H](Cc3cccnc3)C(=O)N(C)CC(N)=O)CCCCC2)NC1=O [compound 538, MeCO-Pen(3)-N-T-7MeW-K(Ac)-Pen(3)-TMAPF-2Nal-Achx-K(Ac)-N-3Pya-Sar-CONH2]
